Data as given in patent US9370507B2, “Pyridonyl guanidine F1F0-ATPase inhibitors and therapeutic uses thereof” (Lycera Corporation, priority 2010, dated 2016).

Assays:
F1F0-ATPase = biological target: T1, F1F0-ATPase (Bos taurus, UniProt P13621); test: Inhibition of F1F0-ATPase activity in synthesizing ATP; format: biochemical; details: inhibition of ATP synthesis; read-out: ATP Syn IC50
T1 construct: from tissue
Method: (§1) The compounds listed in Table 4 were tested for activity against F1F0-ATPase by measuring the ability of the compounds to inhibit ATP synthesis. In addition, the compounds were assessed for cytotoxicity in Ramos cells Inhibition of F1F0-ATPase activity in synthesizing ATP and cytotoxicity in Ramos cells were measured according to the procedures described in K. M. Johnson et al. Chemistry & Biology 2005, 12, 485-496.

Ramos cells = test: Cytotoxicity in Ramos cells; format: cell-based; details: Homo sapiens, read-out: Ramos Cell EC50
Method: as §1

Row | SMILES | IC50 (F1F0-ATPase) | EC50 (Ramos cells)
1 | O=C(/N=C(/NCc1ccc(Cl)cc1)Nc1cccc(O)n1)c1ccc(Cl)cc1 [Compound A-76] | < 10 µM | < 10 µM
2 | O=C(/N=C(/NCc1ccccc1C(F)(F)F)Nc1cccc(O)n1)c1ccc(Cl)cc1 [Compound A-77] | < 10 µM | < 10 µM
3 | O=C(/N=C(/NCc1ccc(C(F)(F)F)cc1)Nc1cccc(O)n1)c1ccc(Cl)cc1 [Compound A-79] | < 10 µM | < 10 µM
4 | O=C(/N=C(/NCc1ccc(F)c(F)c1)Nc1cccc(O)n1)c1ccc(Cl)cc1 [Compound A-80] | < 10 µM | < 10 µM
5 | O=C(/N=C(/NCc1ccc(F)cc1Cl)Nc1cccc(O)n1)c1ccc(Cl)cc1 [Compound A-81] | < 10 µM | < 10 µM
6 | O=C(/N=C(/NCc1ccc(F)c(Cl)c1)Nc1cccc(O)n1)c1ccc(Cl)cc1 [Compound A-82] | < 10 µM | < 10 µM
7 | O=C(/N=C(/NCc1ccc(Cl)c(F)c1)Nc1cccc(O)n1)c1ccc(Cl)cc1 [Compound A-83] | < 10 µM | < 10 µM
8 | O=C(/N=C(/NCc1ccc(Cl)cc1F)Nc1cccc(O)n1)c1ccc(Cl)cc1 [Compound A-84] | < 10 µM | > 10 µM
9 | O=C(/N=C(/NCc1ccc(F)cc1)Nc1cccc(O)n1)c1ccc(C(F)(F)F)cc1 [Compound A-85] | < 10 µM | < 10 µM
10 | O=C(/N=C(/NCc1cccc(F)c1F)Nc1cccc(O)n1)c1ccc(C(F)(F)F)cc1 [Compound A-86] | < 10 µM | < 10 µM
11 | O=C(/N=C(/NCc1ccccc1Cl)Nc1cccc(O)n1)c1ccc(Cl)cc1 [Compound A-87] | < 10 µM | < 10 µM
12 | O=C(/N=C(/NCc1cccc(Cl)c1)Nc1cccc(O)n1)c1ccc(Cl)cc1 [Compound A-88] | < 10 µM | < 10 µM
13 | O=C(/N=C(\Nc1cccc(O)n1)NC1CCCC1)c1ccc(C(F)(F)F)cc1 [Compound A-89] | < 10 µM | < 10 µM
14 | CCC(C)(C)N/C(=N/C(=O)c1ccc(C(F)(F)F)cc1)Nc1cccc(O)n1 [Compound A-90] | < 10 µM | < 10 µM
15 | C[C@@H](N/C(=N/C(=O)c1ccc(C(F)(F)F)cc1)Nc1cccc(O)n1)C1CCCCC1 [Compound A-91] | < 10 µM | < 10 µM
16 | O=C(/N=C(\Nc1cccc(O)n1)NC1CCOCC1)c1ccc(C(F)(F)F)cc1 [Compound A-92] | < 10 µM | < 10 µM
17 | O=C(/N=C(\Nc1cccc(O)n1)NC1CCCOC1)c1ccc(C(F)(F)F)cc1 (centres unmarked) [Compound A-93] | < 10 µM | < 10 µM
18 | COCC(C)N/C(=N/C(=O)c1ccc(C(F)(F)F)cc1)Nc1cccc(O)n1 (centres unmarked) [Compound A-94] | < 10 µM | > 10 µM
19 | O=C(/N=C(\Nc1cccc(O)n1)NC1CCCC1)c1ccc(F)c(F)c1 [Compound A-95] | < 10 µM | < 10 µM
20 | CCC(C)(C)N/C(=N/C(=O)c1ccc(F)c(F)c1)Nc1cccc(O)n1 [Compound A-96] | < 10 µM | < 10 µM
21 | C[C@@H](N/C(=N/C(=O)c1ccc(F)c(F)c1)Nc1cccc(O)n1)C1CCCCC1 [Compound A-97] | < 10 µM | < 10 µM

Row | SMILES | IC50 (F1F0-ATPase) | EC50 (Ramos cells)
22 | O=C(/N=C(\Nc1cccc(O)n1)NC1CCOCC1)c1ccc(F)c(F)c1 [Compound A-98] | > 10 µM | > 10 µM
23 | O=C(/N=C(\Nc1cccc(O)n1)NC1CCCOC1)c1ccc(F)c(F)c1 (centres unmarked) [Compound A-99] | > 10 µM | > 10 µM
24 | COCC(C)N/C(=N/C(=O)c1ccc(F)c(F)c1)Nc1cccc(O)n1 (centres unmarked) [Compound A-100] | > 10 µM | > 10 µM
25 | O=C(/N=C(\Nc1cccc(O)n1)NC1CCCC1)c1ccc(Cl)cc1 [Compound A-101] | < 10 µM | > 10 µM
26 | CCC(C)(C)N/C(=N/C(=O)c1ccc(Cl)cc1)Nc1cccc(O)n1 [Compound A-102] | < 10 µM | < 10 µM
27 | C[C@@H](N/C(=N/C(=O)c1ccc(Cl)cc1)Nc1cccc(O)n1)C1CCCCC1 [Compound A-103] | < 10 µM | < 10 µM
28 | O=C(/N=C(\Nc1cccc(O)n1)NC1CCOCC1)c1ccc(Cl)cc1 [Compound A-104] | > 10 µM | > 10 µM
29 | O=C(/N=C(\Nc1cccc(O)n1)NC1CCCOC1)c1ccc(Cl)cc1 (centres unmarked) [Compound A-105] | > 10 µM | > 10 µM
30 | COCC(C)N/C(=N/C(=O)c1ccc(Cl)cc1)Nc1cccc(O)n1 (centres unmarked) [Compound A-106] | > 10 µM | > 10 µM
31 | CC(C)N/C(=N/C(=O)c1ccc(F)c(F)c1)Nc1cccc(O)n1 [Compound A-107] | < 10 µM | > 10 µM
32 | O=C(/N=C(\Nc1cccc(O)n1)NC1CCC1)c1ccc(F)c(F)c1 [Compound A-108] | < 10 µM | > 10 µM
33 | CC(C)N/C(=N/C(=O)c1ccc(Cl)cc1)Nc1cccc(O)n1 [Compound A-109] | < 10 µM | > 10 µM
34 | Nc1cccc(N/C(=N\C(=O)c2ccc(F)c(F)c2)Nc2cccc(C(F)(F)F)c2)n1 [Compound A-110] | < 10 µM | > 10 µM
35 | CCOC(=O)Nc1cccc(N/C(=N\C(=O)c2ccc(F)c(F)c2)Nc2cccc(C(F)(F)F)c2)n1 [Compound A-111] | > 10 µM | > 10 µM
36 | CCOC(=O)Nc1cccc(N/C(=N\C(=O)c2ccc(F)c(F)c2)NCc2ccc(Cl)cc2F)n1 [Compound A-112] | < 10 µM | > 10 µM
37 | CS(=O)(=O)Nc1cccc(N/C(=N\C(=O)c2ccc(F)c(F)c2)Nc2cccc(C(F)(F)F)c2)n1 [Compound A-113] | < 10 µM | < 10 µM
38 | CS(=O)(=O)Nc1cccc(N/C(=N\C(=O)c2ccc(C(F)(F)F)cc2)NCc2ccccc2C(F)(F)F)n1 [Compound A-114] | < 10 µM | < 10 µM
39 | CCS(=O)(=O)Nc1cccc(N/C(=N\C(=O)c2ccc(C(F)(F)F)cc2)NCc2ccccc2C(F)(F)F)n1 [Compound A-115] | < 10 µM | < 10 µM
40 | O=C(/N=C(/NCc1ccccc1C(F)(F)F)Nc1cccc(NS(=O)(=O)CC(F)(F)F)n1)c1ccc(C(F)(F)F)cc1 [Compound A-116] | < 10 µM | < 10 µM
41 | O=C(/N=C(/NCc1ccccc1C(F)(F)F)Nc1cccc(NS(=O)(=O)C2CC2)n1)c1ccc(C(F)(F)F)cc1 [Compound A-117] | < 10 µM | < 10 µM
42 | Nc1cccc(N/C(=N\C(=O)c2cccc(C(F)(F)F)c2)Nc2cccc(C(F)(F)F)c2)n1 [Compound A-118] | > 10 µM | > 10 µM

Row | SMILES | IC50 (F1F0-ATPase) | EC50 (Ramos cells)
43 | COc1cccc(N/C(=N\C(=O)c2cccc(C(F)(F)F)c2)Nc2cccc(C(F)(F)F)c2)n1 [Compound A-119] | > 10 µM | > 10 µM
44 | O=C(/N=C(/Nc1cccc(C(F)(F)F)c1)Nc1cccc(Br)n1)c1cccc(C(F)(F)F)c1 [Compound A-120] | > 10 µM | > 10 µM
45 | CS(=O)(=O)Nc1cccc(N/C(=N\C(=O)c2ccc(Cl)c(F)c2)NCc2ccc(F)c(Cl)c2)n1 [Compound A-121] | < 10 µM | < 10 µM
46 | CS(=O)(=O)Nc1cccc(N/C(=N\C(=O)c2ccc(C(F)(F)F)cc2)NCC(F)(F)F)n1 [Compound A-122] | < 10 µM | > 10 µM
47 | CS(=O)(=O)Nc1cccc(N/C(=N\C(=O)c2ccc(C(F)(F)F)cc2)Nc2cc(F)cc(Cl)c2)n1 [Compound A-123] | < 10 µM | < 10 µM
48 | CC(C)(C)N/C(=N/C(=O)c1ccc(Cl)cc1)Nc1cccc(NS(=O)(=O)CC(F)(F)F)n1 [Compound A-124] | < 10 µM | < 10 µM
49 | O=C(/N=C(/NCC(F)(F)F)Nc1cccc(NS(=O)(=O)CC(F)(F)F)n1)c1ccc(Cl)cc1 [Compound A-125] | < 10 µM | < 10 µM
50 | CC1(N/C(=N/C(=O)c2ccc(Cl)cc2)Nc2cccc(NS(=O)(=O)CC(F)(F)F)n2)CCC1 [Compound A-126] | < 10 µM | < 10 µM
51 | O=C(/N=C(\Nc1cccc(NS(=O)(=O)CC(F)(F)F)n1)NC(C1CC1)C1CC1)c1ccc(Cl)cc1 [Compound A-127] | < 10 µM | < 10 µM
52 | CC(C)(C)N/C(=N/C(=O)c1ccc(F)c(F)c1)Nc1cccc(NS(=O)(=O)CC(F)(F)F)n1 [Compound A-128] | < 10 µM | < 10 µM
53 | CC(C)(C)N/C(=N/C(=O)c1ccc(C(F)(F)F)cc1)Nc1cccc(NS(=O)(=O)CC(F)(F)F)n1 [Compound A-129] | < 10 µM | < 10 µM
54 | CCS(=O)(=O)Nc1cccc(N/C(=N\C(=O)c2ccc(Cl)cc2)Nc2cc(F)cc(Cl)c2)n1 [Compound A-130] | < 10 µM | < 10 µM
55 | CCS(=O)(=O)Nc1cccc(N/C(=N\C(=O)c2ccc(Cl)cc2)NCC(C)(C)C)n1 [Compound A-131] | < 10 µM | < 10 µM
56 | CCS(=O)(=O)Nc1cccc(N/C(=N\C(=O)c2ccc(Cl)cc2)NCc2ccc(Cl)cc2F)n1 [Compound A-132] | < 10 µM | < 10 µM
57 | CC(C)(C)CN/C(=N/C(=O)c1ccc(Cl)cc1)Nc1cccc(NS(=O)(=O)c2ccccc2)n1 [Compound A-133] | < 10 µM | > 10 µM
58 | CC(C)(C)CN/C(=N/C(=O)c1ccc(Cl)cc1)Nc1cccc(NS(=O)(=O)CC(F)(F)F)n1 [Compound A-134] | < 10 µM | < 10 µM
59 | O=C(N=C(Nc1cc(F)cc(Cl)c1)Nc1cccc(NS(=O)(=O)CC(F)(F)F)n1)c1ccc(Cl)cc1 [Compound A-135] | < 10 µM | < 10 µM
60 | O=C(/N=C(/NCc1ccc(Cl)cc1F)Nc1cccc(NS(=O)(=O)CC(F)(F)F)n1)c1ccc(Cl)cc1 [Compound A-136] | < 10 µM | < 10 µM
61 | O=C(/N=C(/NCc1ccc(Cl)cc1F)Nc1cccc(NS(=O)(=O)c2ccccn2)n1)c1ccc(Cl)cc1 [Compound A-137] | < 10 µM | > 10 µM
